Source: patent US6683114B2, “Treatment of psoriasis” (Eli Lilly and Company, priority 2000, dated 2004)
Where a name gives a salt, the structure may show the parent alone.

Tested on: plaque-like psoriasis
Experiment: Treatment of a subject with moderately severe plaque-like psoriasis (case report, Example 1)
Assay type: in vivo, human
Settings: person, plaque-like psoriasis of legs; 60 mg twice daily for 12 consecutive days
Experimental: The subject presented with moderately severe plaque-like psoriasis of their legs. The subject had suffered from psoriasis for most of their life, and the condition had worsened immediately prior to the present study. […] The subject was treated with 60 mg of tomoxetine hydrochloride, twice daily for 12 consecutive days.

**Q.** For `CNCC[C@@H](Oc1ccccc1C)c1ccccc1` [tomoxetine hydrochloride, (R)-(−)-N-methyl-3-(2-methylphenoxy)-3-phenylpropylamine], which “Clinical outcome of psoriasis lesions at final assessment” value is on record?
**A.** significant improvement
